#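 Exposure lasted 48 hours, with cells grown in 96-well plates and compounds tested at five concentrations. GI50 marks 50% less growth. TGI: total growth inhibition.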
# Tests used:
# Assay in all cases: NCI tumour cell line growth inhibition, 48 h
# 786-0 renal = system: 786-0 renal
# A498 renal = system: A498 renal
# A549 NSCLC = system: A549 NSCLC
# ACHN renal = system: ACHN renal
# BT-549 breast = system: BT-549 breast
# CAKI-1 renal = system: CAKI-1 renal
# COLO 205 colon = system: COLO 205 colon
# DU-145 prostate = system: DU-145 prostate
# EKVX NSCLC = system: EKVX NSCLC
# HCC-2998 colon = system: HCC-2998 colon
# HCT-116 colon = system: HCT-116 colon
# HCT-15 colon = system: HCT-15 colon
# HL-60(TB) leukemia = system: HL-60(TB) leukemia
# HOP-62 NSCLC = system: HOP-62 NSCLC
# HOP-92 NSCLC = system: HOP-92 NSCLC
# HS 578T breast = system: HS 578T breast
# IGROV1 ovarian = system: IGROV1 ovarian
# K-562 leukemia = system: K-562 leukemia
# KM12 colon = system: KM12 colon
# LOX IMVI melanoma = system: LOX IMVI melanoma
# M14 melanoma = system: M14 melanoma
# MALME-3M melanoma = system: MALME-3M melanoma
# MCF7 breast = system: MCF7 breast
# MDA-MB-231 breast = system: MDA-MB-231 breast
# MDA-MB-435 = system: MDA-MB-435
# MOLT-4 leukemia = system: MOLT-4 leukemia
# NCI-H226 lung = system: NCI-H226 lung
# NCI-H23 lung = system: NCI-H23 lung
# NCI-H460 lung = system: NCI-H460 lung
# NCI-H522 lung = system: NCI-H522 lung
# NCI/ADR-RES ovarian = system: NCI/ADR-RES ovarian
# OVCAR-3 ovarian = system: OVCAR-3 ovarian
# OVCAR-4 ovarian = system: OVCAR-4 ovarian
# OVCAR-5 ovarian = system: OVCAR-5 ovarian
# OVCAR-8 ovarian = system: OVCAR-8 ovarian
# PC-3 prostate = system: PC-3 prostate
# RPMI-8226 leukemia = system: RPMI-8226 leukemia
# RXF 393 renal = system: RXF 393 renal
# SF-268 CNS = system: SF-268 CNS
# SF-295 CNS = system: SF-295 CNS
# SF-539 CNS = system: SF-539 CNS
# SK-MEL-2 melanoma = system: SK-MEL-2 melanoma
# SK-MEL-28 melanoma = system: SK-MEL-28 melanoma
# SK-MEL-5 melanoma = system: SK-MEL-5 melanoma
# SK-OV-3 ovarian = system: SK-OV-3 ovarian
# SN12C renal = system: SN12C renal
# SNB-19 CNS = system: SNB-19 CNS
# SNB-75 CNS = system: SNB-75 CNS
# SR leukemia = system: SR leukemia
# SW-620 colon = system: SW-620 colon
# T-47D breast = system: T-47D breast
# TK-10 renal = system: TK-10 renal
# U251 CNS = system: U251 CNS
# UACC-257 melanoma = system: UACC-257 melanoma
# UACC-62 melanoma = system: UACC-62 melanoma
# UO-31 renal = system: UO-31 renal
smiles,measurement,setting,value
CN(C)CC(C(=O)Cc1ccccc1)c1ccccc1 (configuration not stated),GI50,786-0 renal,2.18 µM
same,TGI,786-0 renal,4.51 µM
same,GI50,A498 renal,12.4 µM
same,TGI,A498 renal,25 µM
same,GI50,A549 NSCLC,16.7 µM
same,TGI,A549 NSCLC,35.5 µM
same,GI50,ACHN renal,1.97 µM
same,TGI,ACHN renal,3.53 µM
same,GI50,BT-549 breast,3.18 µM
same,TGI,BT-549 breast,8.74 µM
same,GI50,CAKI-1 renal,1.57 µM
same,TGI,CAKI-1 renal,3.01 µM
same,GI50,COLO 205 colon,2.3 µM
same,TGI,COLO 205 colon,5.04 µM
same,GI50,DU-145 prostate,1.73 µM
same,TGI,DU-145 prostate,4.72 µM
same,GI50,EKVX NSCLC,17 µM
same,TGI,EKVX NSCLC,40.5 µM
same,GI50,HCC-2998 colon,15.9 µM
same,TGI,HCC-2998 colon,30.3 µM
same,GI50,HCT-116 colon,1.72 µM
same,TGI,HCT-116 colon,3.3 µM
same,GI50,HCT-15 colon,1.76 µM
same,TGI,HCT-15 colon,3.95 µM
same,GI50,HL-60(TB) leukemia,1.83 µM
same,TGI,HL-60(TB) leukemia,5.75 µM
same,GI50,HOP-62 NSCLC,6.87 µM
same,TGI,HOP-62 NSCLC,21 µM
same,GI50,HOP-92 NSCLC,2.78 µM
same,TGI,HOP-92 NSCLC,7.5 µM
same,GI50,HS 578T breast,3.16 µM
same,TGI,HS 578T breast,9.83 µM
same,GI50,IGROV1 ovarian,11.6 µM
same,TGI,IGROV1 ovarian,26.4 µM
same,GI50,K-562 leukemia,1.62 µM
same,TGI,K-562 leukemia,> 100 µM
same,GI50,KM12 colon,1.07 µM
same,TGI,KM12 colon,2.49 µM
same,GI50,LOX IMVI melanoma,1.39 µM
same,TGI,LOX IMVI melanoma,3.04 µM
same,GI50,M14 melanoma,2.34 µM
same,TGI,M14 melanoma,4.97 µM
same,GI50,MALME-3M melanoma,1.74 µM
same,TGI,MALME-3M melanoma,3.89 µM
same,GI50,MCF7 breast,0.369 µM
same,TGI,MCF7 breast,1.67 µM
same,GI50,MDA-MB-231 breast,3.48 µM
same,TGI,MDA-MB-231 breast,11 µM
same,GI50,MDA-MB-435,3.09 µM
same,TGI,MDA-MB-435,12.2 µM
same,GI50,MOLT-4 leukemia,3.02 µM
same,TGI,MOLT-4 leukemia,> 100 µM
same,GI50,NCI-H226 lung,13.8 µM
same,TGI,NCI-H226 lung,38.3 µM
same,GI50,NCI-H23 lung,12.2 µM
same,TGI,NCI-H23 lung,30.5 µM
same,GI50,NCI-H460 lung,4.24 µM
same,TGI,NCI-H460 lung,14.8 µM
same,GI50,NCI-H522 lung,1.74 µM
same,TGI,NCI-H522 lung,3.47 µM
same,GI50,NCI/ADR-RES ovarian,4.4 µM
same,TGI,NCI/ADR-RES ovarian,23.9 µM
same,GI50,OVCAR-3 ovarian,1.9 µM
same,TGI,OVCAR-3 ovarian,3.48 µM
same,GI50,OVCAR-4 ovarian,2.35 µM
same,TGI,OVCAR-4 ovarian,5.87 µM
same,GI50,OVCAR-5 ovarian,8.19 µM
same,TGI,OVCAR-5 ovarian,22.4 µM
same,GI50,OVCAR-8 ovarian,6.75 µM
same,TGI,OVCAR-8 ovarian,23.1 µM
same,GI50,PC-3 prostate,7.53 µM
same,TGI,PC-3 prostate,22.4 µM
same,GI50,RPMI-8226 leukemia,0.444 µM
same,TGI,RPMI-8226 leukemia,3.17 µM
same,GI50,RXF 393 renal,2.39 µM
same,TGI,RXF 393 renal,4.86 µM
same,GI50,SF-268 CNS,8.25 µM
same,TGI,SF-268 CNS,22.6 µM
same,GI50,SF-295 CNS,11.3 µM
same,TGI,SF-295 CNS,27.8 µM
same,GI50,SF-539 CNS,1.87 µM
same,TGI,SF-539 CNS,3.99 µM
same,GI50,SK-MEL-2 melanoma,2.54 µM
same,TGI,SK-MEL-2 melanoma,5.57 µM
same,GI50,SK-MEL-28 melanoma,3.22 µM
same,TGI,SK-MEL-28 melanoma,10.2 µM
same,GI50,SK-MEL-5 melanoma,11.6 µM
same,TGI,SK-MEL-5 melanoma,25.2 µM
same,GI50,SK-OV-3 ovarian,18.4 µM
same,TGI,SK-OV-3 ovarian,36.2 µM
same,GI50,SN12C renal,3.04 µM
same,TGI,SN12C renal,11 µM
same,GI50,SNB-19 CNS,15 µM
same,TGI,SNB-19 CNS,30 µM
same,GI50,SNB-75 CNS,2.72 µM
same,TGI,SNB-75 CNS,11.5 µM
same,GI50,SR leukemia,1.24 µM
same,TGI,SR leukemia,7.55 µM
same,GI50,SW-620 colon,1.79 µM
same,TGI,SW-620 colon,3.59 µM
same,GI50,T-47D breast,1.11 µM
same,TGI,T-47D breast,4.91 µM
same,GI50,TK-10 renal,1.56 µM
same,TGI,TK-10 renal,3.1 µM
same,GI50,U251 CNS,2.23 µM
same,TGI,U251 CNS,5.02 µM
same,GI50,UACC-257 melanoma,1.79 µM
same,TGI,UACC-257 melanoma,4.25 µM
same,GI50,UACC-62 melanoma,6.16 µM
same,TGI,UACC-62 melanoma,20.1 µM
same,GI50,UO-31 renal,1.69 µM
same,TGI,UO-31 renal,3.32 µM
